Data on one molecule can be found in patent US20230346773A1, “USE OF PCSK9 INHIBITOR IN PREPARATION OF PRODUCT FOR TREATING MULTIPLE DISEASES” (priority 2020, published 2023).

The subject of experiment [1] is androgenetic alopecia (SA) rat model. Nature of the experiment: Androgenetic alopecia (SA) rat model induced by testosterone propionate. Format: in vivo, Wistar rats. As for the experimental part: SPF grade Wistar rats were selected and randomly divided into compound group 1 (skin applied with 5% R-IMPP solution), compound group 2 (skin applied with 5% PF 06446846 solution), and compound group 3 (skin applied with 5% SBC-115076 solution), compound group 4 (skin applied with 5% SBC-110736 solution), monoclonal antibody group 1 (subcutaneous injection of PCSK9 monoclonal antibody ab84041, 5 mg/kg·d), monoclonal antibody group 2 (subcutaneous injection of Evolocumab, 5 mg/kg·d), monoclonal antibody group 3 (subcutaneous injection of Alirocumab, 5 mg/kg·d), PCSK9 RNAi inhibitor group-1 (skin applied with 5% PCSK9 small interfering RNA-1 solution), PCSK9 RNAi inhibitor group-2 (skin applied with 5% PCSK9 small interfering RNA-2 solution), PCSK9 RNAi inhibitor group-3 (skin applied with 5% PCSK9 small interfering RNA-3 solution), and polypeptide group (subcutaneous injection of Abcam company ab32727, 3 mg/kg·d), positive control group (skin smeared with 5% minoxidil tincture), negative control group (smeared with 75% ethanol), model control group (smeared with 75% ethanol), 10 rats in each group, half male and half female.
Before the experiment, each rat selected an area of 4 cm×5 cm on the back to remove the hair as the observation area. Except for the negative control group, the rats were subcutaneously injected with testosterone propionate injection [[…]] at the back of the neck, once a day for 60 consecutive days to establish the SA model. […] At the same time, the rats in the corresponding drug group were smeared or subcutaneously injected on the skin of the observation area of the rats in the drug group, smeared 1 ml/(per time), twice a day, with an interval of 8 hours, and administered by subcutaneous injection, once a day. The negative control group and the model control group were smeared with excipient (75% ethanol solution), 1 mL one rat per time, twice a day, for 60 consecutive days.
10 hairs were extracted from the observation area on the back of each rat every 15 days after administration, and the hair length was measured with a vernier caliper. After 60 days of administration, the skin of the experimental observation area was taken for routine tissue dehydration, paraffin embedding, HE staining, and light microscopy to observe the histopathological changes of the rat skin hair follicles and sebaceous glands. Semi-quantitative analysis was carried out in each group. The grading standards are as follows: normal skin dermal tissue cells, subcutaneous hair follicles, and sebaceous glands were marked as “one”; no hyperplasia in the dermis, limited lesions of hair follicles and sebaceous glands, and no subcutaneous inflammation, marked as “±”; no obvious hyperplasia found in the dermis, obviously cystic follicles, no obvious hyperplasia found in the sebaceous glands, and no inflammation is recorded as “+”; segmental hyperplasia of skin and dermis was not obvious, a small number of hair follicles had cystic degeneration, and sebaceous glands had mild hyperplasia and hypertrophy. No obvious inflammation under the skin was recorded as “++”; the skin and dermis tissue cells had segmental hyperplasia of different degrees, some follicles degenerated, the size of the hair follicles was uneven, and there were no cells in the periphery. There was hyperplasia of sebaceous glands, and there were few nuclei in the hyperplasia glands. Individual rats had mild inflammatory hyperplasia under the skin, which was marked as “+++”.

For experiment [2], the system named is hair follicles / hair growth in depilated C57BL/6 mice. Nature of the experiment: Hair growth in C57BL/6 mice after rosin/paraffin depilation. Type of experiment: in vivo. On the procedure:
SPF grade C57BL/6 mice were selected and numbered according to their weight. They were randomly divided into compound group 1 (skin applied with 2% R-IMPP solution), compound group 2 (skin applied with 2% PF 06446846 solution), and compound group 3 (skin applied with 2% SBC-115076 solution), compound group 4 (skin applied with 2% SBC-110736 solution), monoclonal antibody group 1 (PCSK9subcutaneous injection monoclonal antibody ab81041, 5 mg/kg·d), monoclonal antibody group 2 (Subcutaneous injection of Evolocumab, 5 mg/kg·d), monoclonal antibody group 3 (subcutaneous injection of Alirocumab, 5 mg/kg·d), PCSK9 RNA interference group-1 (skin applied with 2% PCSK9 small interfering RNA-1 solution), PCSK9 RNA interference Group-2 (skin applied with 2% PCSK9 small interfering RNA-2 solution), PCSK9 RNA interference group-3 (skin applied with 2% PCSK9 small interfering RNA-3 solution), polypeptide group (subcutaneous injection of Abcam company ab32727, 3 mg/kg·d), positive control group (skin applied with 2% minoxidil solution), negative control group (skin applied with 60% ethanol), and model control group (skin applied with 60% ethanol), 10 mice in each group, half male and half female. After the mice were anesthetized with ether, they were coated on the back with a mixture of rosin and paraffin (1:1) after hot melting, and then peeled off after it solidified and hardened. The back of the mouse was cleaned to be hairless and without injuries. The depilation area was about 3 cm×4 cm. From the 2nd day after depilation, the corresponding drugs were applied to the hair removal area, twice a day, 0.5 mL per animal each time, and subcutaneously injected once a week.
From the second day after application, observe the daily color change of the skin on the back of the mice to determine the growth state of the hair follicles and visually observe the hair growth in the depilation area, and score the new hair growth in the depilation area once a day. Five mice in each group were reserved for 40 days of visual observation, and the growth of back hair was recorded.
On the 17th day, five mice in each group were sacrificed by cervical dislocation. The samples were taken from the same part of the back parallel to the spine, fixed with 10% formaldehyde, dehydrated, embedded in paraffin, sectioned, stained with HE, and sealed with neutral gum. Then the histology of hair follicles was observed under light microscope, and morphological staging of hair follicles was performed. According to the international hair cycle scoring method, the hair follicles were scored as follows: 100 points for growth stage VI, 200 points for early regression, 300 points for middle regression, and 400 points for late regression. 50 hair follicles were randomly selected from each mouse, the cycle of the hair follicles in each group was determined, and the average hair cycle score and the percentage of hair follicles in the growth phase VI, early regression, middle regression, and late regression were calculated.

The mark [3] stands for this setting: hair removal area on the back of mice, after hair removal.

SMILES strings stand for the structures. Marks after values point to notes of the source that are not given here.

With `Nc1cc(N2CCCCC2)nc(N)[n+]1[O-]` [Positive control group, minoxidil], in experiment [1] (10 rats, after 60 days, few follicles with cystic degeneration, sebaceous glands mild hyperplasia and hypertrophy), the “Skin hair follicles and sebaceous glands: number of rats graded ++” value turned out to be 2. Further, the “Skin hair follicles and sebaceous glands: number of rats graded ±” value in experiment [1] (10 rats, after 60 days, no hyperplasia in the dermis, limited lesions of hair follicles and sebaceous glands, no subcutaneous inflammation) is 3. In addition, the “Skin hair follicles and sebaceous glands: number of rats graded +” value in experiment [1] (10 rats, after 60 days, no obvious hyperplasia in dermis, obviously cystic follicles, no inflammation) was found to be 5. Also, the “Skin hair follicles and sebaceous glands: number of rats graded −” value in experiment [1] (10 rats, after 60 days, normal skin dermal tissue cells, subcutaneous hair follicles and sebaceous glands) stood at 0. In addition, the “Skin hair follicles and sebaceous glands: number of rats graded +++” value in experiment [1] (10 rats, after 60 days, segmental hyperplasia, degenerated follicles, hyperplasia of sebaceous glands, mild inflammatory hyperplasia) came out at 0. For the same molecule, the “15 d hair length” value in experiment [1] (rats, 15 days after administration) is listed as 7.9* mm. Further, the “30 d hair length” value in experiment [1] (rats, 30 days after administration) is 8.4* mm. For the same molecule, the “45 d hair length” value in experiment [1] (rats, 45 days after administration) is on record as 12.8* mm. Further, the “60 d hair length” value in experiment [1] (rats, 60 days after administration) is 14.9* mm. Further, the “percentage of hair follicles in the growth stage VI” value in experiment [2] (17th day after hair plucking) came out at 42%. Further, the “average hair cycle score” value in experiment [2] (17th day after hair plucking, 100 points growth stage VI, 200 early, 300 middle, 400 late regression) worked out at 185. In experiment [2] (back hair removal area of mice), the “Time from hair growth to the same length as the hair in the non-experimental area” value came out at 15.77 days, the “Time to grow new hair” value was 7.85 days and the “Time to match the length of hair in the non-experimental area” value amounted to 23.62 days. In addition, in experiment [2] (hair removal area on the back of mice), the Black skin duration turned out to be 12.80 days. In experiment [2] (setting [3]), the Skin black-turning time is given as 6.29* days and the Skin grayish-black-turning time is recorded as 19.09* days.
